Test results: ChEMBL document CHEMBL1201862, “PubChem BioAssay data set” (2004)
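Results reflect a 48-hour exposure of cells in 96-well plates to compound at five concentrations. At the GI50, growth is halved.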 Activity calls are given as the source filed them. Cut-off read from the data, not from the text of the source: active = GI50 up to about 1.1 µM and inactive = higher.

Experiments:
Assay in all cases: NCI anticancer screen, dose series, 48 h
SK-MEL-2 = test system: SK-MEL-2
EKVX = test system: EKVX
MDA-N = test system: MDA-N
RXF 393 = test system: RXF 393
SR = test system: SR
SK-OV-3 = test system: SK-OV-3
SW-620 = test system: SW-620
OVCAR-8 = test system: OVCAR-8
NCI-H23 = test system: NCI-H23
HCT-15 = test system: HCT-15
NCI-H522 = test system: NCI-H522
ACHN = test system: ACHN
TK-10 = test system: TK-10
SF-268 = test system: SF-268
SNB-19 = test system: SNB-19
SK-MEL-28 = test system: SK-MEL-28
UACC-257 = test system: UACC-257
NCI/ADR-RES = test system: NCI/ADR-RES
SN12C = test system: SN12C
DU-145 = test system: DU-145
A549 = test system: A549
SK-MEL-5 = test system: SK-MEL-5
SF-539 = test system: SF-539
K562 = test system: K562
CAKI-1 = test system: CAKI-1
IGROV-1 = test system: IGROV-1
UACC-62 = test system: UACC-62
A498 = test system: A498
U-251 = test system: U-251
786-0 = test system: 786-0
NCI-H460 = test system: NCI-H460
COLO 205 = test system: COLO 205
Hs-578T = test system: Hs-578T
MDA-MB-231 = test system: MDA-MB-231
HT-29 = test system: HT-29
SNB-75 = test system: SNB-75
T47D = test system: T47D
M14 = test system: M14
SF-295 = test system: SF-295
UO-31 = test system: UO-31
KM12 = test system: KM12
CCRF-CEM = test system: CCRF-CEM
MDA-MB-435 = test system: MDA-MB-435
OVCAR-5 = test system: OVCAR-5
OVCAR-4 = test system: OVCAR-4
MOLT-4 = test system: MOLT-4
BT-549 = test system: BT-549
HCT-116 = test system: HCT-116
PC-3 = test system: PC-3
HOP-92 = test system: HOP-92
Malme-3M = test system: Malme-3M
HL-60 = test system: HL-60
RPMI-8226 = test system: RPMI-8226
NCI-H226 = test system: NCI-H226
LOX IMVI = test system: LOX IMVI
OVCAR-3 = test system: OVCAR-3
HOP-62 = test system: HOP-62
MCF7 = test system: MCF7
HCC 2998 = test system: HCC 2998

Measured: GI50

CC(=O)Nc1ccc2cc(C)c(O)nc2n1
inactive: SK-MEL-2 > 100 µM | EKVX > 100 µM | MDA-N > 100 µM | RXF 393 25.9 µM | SR > 100 µM | SK-OV-3 > 100 µM | SW-620 > 100 µM | OVCAR-8 > 100 µM | NCI-H23 > 100 µM | NCI-H522 > 100 µM | ACHN > 100 µM | TK-10 > 100 µM | SF-268 > 100 µM | SNB-19 > 100 µM | SK-MEL-28 > 100 µM | UACC-257 > 100 µM | NCI/ADR-RES 8.09 µM | SN12C > 100 µM | DU-145 > 100 µM | A549 > 100 µM | SK-MEL-5 > 100 µM | SF-539 > 100 µM | K562 > 100 µM | CAKI-1 > 100 µM | IGROV-1 > 100 µM | UACC-62 > 100 µM | A498 > 100 µM | U-251 > 100 µM | 786-0 52.1 µM | NCI-H460 > 100 µM | COLO 205 > 100 µM | Hs-578T 85.7 µM | MDA-MB-231 75.7 µM | HT-29 > 100 µM | SNB-75 43.7 µM | T47D > 100 µM | M14 > 100 µM | SF-295 > 100 µM | UO-31 > 100 µM | KM12 > 100 µM | CCRF-CEM > 100 µM | MDA-MB-435 > 100 µM | OVCAR-5 > 100 µM | OVCAR-4 > 100 µM | MOLT-4 > 100 µM | BT-549 > 100 µM | HCT-116 > 100 µM | PC-3 > 100 µM | HOP-92 54.2 µM | Malme-3M > 100 µM | HL-60 > 100 µM | RPMI-8226 > 100 µM
> 100 µM: HCT-15

C=C1C[C@@H](O)[C@@H](Br)C(C)(C)[C@@]12C=CC(O)(CBr)CC2 (stereo partly drawn)
active: NCI/ADR-RES 0.0191 µM
inactive: SK-MEL-2 86.3 µM | EKVX 6.98 µM | MDA-N > 100 µM | NCI-H226 > 100 µM | RXF 393 43.3 µM | SR 14.8 µM | LOX IMVI 36.1 µM | OVCAR-3 > 100 µM | SW-620 > 100 µM | OVCAR-8 > 100 µM | NCI-H23 94 µM | NCI-H522 62.4 µM | ACHN > 100 µM | HOP-62 > 100 µM | TK-10 > 100 µM | SF-268 50 µM | SNB-19 88.9 µM | SK-MEL-28 > 100 µM | UACC-257 > 100 µM | SN12C > 100 µM | DU-145 > 100 µM | A549 > 100 µM | SK-MEL-5 76.7 µM | K562 55.8 µM | CAKI-1 > 100 µM | IGROV-1 89.3 µM | UACC-62 43.3 µM | U-251 63.4 µM | 786-0 > 100 µM | NCI-H460 66.4 µM | Hs-578T 45.6 µM | MDA-MB-231 29 µM | HT-29 47.6 µM | T47D > 100 µM | M14 > 100 µM | SF-295 > 100 µM | UO-31 > 100 µM | KM12 1.6 µM | CCRF-CEM 28.1 µM | MDA-MB-435 66.5 µM | OVCAR-5 13.7 µM | OVCAR-4 > 100 µM | MCF7 59.6 µM | MOLT-4 21.4 µM | BT-549 29.9 µM | HCT-116 > 100 µM | PC-3 1.48 µM | HOP-92 13.6 µM | Malme-3M > 100 µM | HL-60 35.4 µM | RPMI-8226 24.9 µM
> 100 µM: HCT-15

CCCCCCCC(=O)NS(=O)(=O)c1ccccc1
> 100 µM: HCT-15
inactive: SK-MEL-2 > 100 µM | EKVX > 100 µM | MDA-N > 100 µM | SR > 100 µM | LOX IMVI > 100 µM | OVCAR-3 > 100 µM | SK-OV-3 > 100 µM | SW-620 > 100 µM | OVCAR-8 > 100 µM | NCI-H23 > 100 µM | NCI-H522 73.3 µM | ACHN > 100 µM | HOP-62 > 100 µM | TK-10 > 100 µM | SF-268 > 100 µM | SNB-19 > 100 µM | SK-MEL-28 > 100 µM | NCI/ADR-RES > 100 µM | DU-145 > 100 µM | A549 > 100 µM | SK-MEL-5 > 100 µM | SF-539 > 100 µM | K562 > 100 µM | CAKI-1 > 100 µM | IGROV-1 > 100 µM | UACC-62 > 100 µM | A498 > 100 µM | U-251 > 100 µM | 786-0 > 100 µM | NCI-H460 > 100 µM | COLO 205 > 100 µM | Hs-578T > 100 µM | MDA-MB-231 > 100 µM | HT-29 > 100 µM | SNB-75 > 100 µM | T47D > 100 µM | M14 77.1 µM | SF-295 > 100 µM | UO-31 > 100 µM | HCC 2998 > 100 µM | KM12 > 100 µM | CCRF-CEM > 100 µM | MDA-MB-435 > 100 µM | OVCAR-4 > 100 µM | MOLT-4 > 100 µM | BT-549 > 100 µM | HCT-116 > 100 µM | PC-3 > 100 µM | Malme-3M > 100 µM | HL-60 > 100 µM | RPMI-8226 > 100 µM
